The subject of one assay is A549 cells. Briefly: Measurement of PGE2-increasing activity in A549 cells (IL-1β stimulated, PGE2 quantified in supernatant). The assay is classed as cell-based. The settings on record: Homo sapiens, 24 h; concentration of 1 µM of each compound; IL-1β treated A549 cells; read-out: Increased PGE2 production in A549 cells. The method, boiled down: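 PGE2 secreted into the supernatant was measured by immunoassay 24 h after treatment. Before treatment, A549 cells were cultured 24 h in 10% FBS F12K, washed, and placed in serum-free medium containing compound (DMSO 0.1% final) plus or minus IL-1β, incubated at 37 °C, 5% CO2.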

Another assay addresses T1, human 15-PGDH (Homo sapiens, UniProt P15428).
T1 construct: purchased R&D System 5660-DH
T1 sequence (P15428 1-266): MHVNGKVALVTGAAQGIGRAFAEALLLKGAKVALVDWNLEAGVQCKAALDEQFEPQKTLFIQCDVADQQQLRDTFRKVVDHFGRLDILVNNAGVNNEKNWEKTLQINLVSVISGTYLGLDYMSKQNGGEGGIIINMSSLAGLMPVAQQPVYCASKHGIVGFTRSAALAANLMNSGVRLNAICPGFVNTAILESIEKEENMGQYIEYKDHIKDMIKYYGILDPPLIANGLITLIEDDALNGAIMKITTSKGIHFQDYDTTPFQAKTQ
In words: Evaluation of 15-PGDH inhibitory activity (fluorescence enzyme assay, NAD+/PGE2). The assay is classed as biochemical. The following applies: human 15-PGDH enzyme, fluorescence Vmax. On the procedure:
15-PGDH inhibition activity of Example compounds was measured as follows. 6.7 ng of human 15-PGDH (R&D System# 5660-DH) enzyme (10 µL) was added to a black 96 well plate, 60 µL of buffer (50 mM Tris-HCl, pH 7.5, 0.01% Tween 20) was added, and 10 µL of 200 µM β-Nicotinamide adenine dinucleotide sodium salt (Sigma, Cat# N0632-5G) was added. 10 µL of (10x) compound solution in DMSO was added and reacted for 10 minutes at room temperature.

pIC50: −log10 of the molar value.

One may read the pIC50 as −log10 of the IC50, conventionally taken in molar units. Low values mean a large IC50, high ones a small IC50. Regarding `O=C(NCc1cncs1)c1cncc(-c2cccc3c(C(=O)N4CCCCC4)cnn23)c1` [Example 57, 5-(3-(piperidine-1-carbonyl)pyrazolo[1,5-a]pyridin-7-yl)-N-(thiazol-5-ylmethyl)nicotinamide], in the assay with A549 cells, the fold induction at 1 µM was more than 1.5. Moreover, the pIC50 against human 15-PGDH was not below 7.00.

With `Cn1nccc1-c1cc(-c2cccc3c(C(=O)N4CCCCC4)cnn23)cc(N2CCOCC2)n1` [Example 369, (7-(2-(1-methyl-1H-pyrazol-5-yl)-6-morpholinopyridin-4-yl)pyrazolo[1,5-a]pyridin-3-yl)(piperidin-1-yl)methanone], in the assay with A549 cells, the fold induction at 1 µM was more than 1.5. The compound also gave a pIC50 against human 15-PGDH not below 7.00.

Regarding `O=C(c1cnn2c(-c3cncc(F)c3)cccc12)N1CCCCC1` [Example 284, (7-(5-fluoropyridin-3-yl)pyrazolo[1,5-a]pyridin-3-yl)(piperidin-1-yl)methanone], the fold induction at 1 µM in the assay with A549 cells is more than 1.5. The pIC50 against human 15-PGDH was not below 7.00.

Turning to `O=C(c1cncc(-c2cccc3c(C(=O)N4CCCCC4)cnn23)c1)N1CCOCC1` [Example 39, (7-(5-(morpholine-4-carbonyl)pyridin-3-yl)pyrazolo[1,5-a]pyridin-3-yl)(piperidin-1-yl)methanone], the fold induction at 1 µM with A549 cells is less than 1.5. At human 15-PGDH, this compound gave a pIC50 not below 7.00.

`Cn1oc2ccc(-c3cccc4c(C(=O)N5CCCCC5)cnn34)cc2c1=O` [Example 268, 2-methyl-5-(3-(piperidine-1-carbonyl)pyrazolo[1,5-a]pyridin-7-yl)benzo[d]isoxazol-3(2H)-one]: the fold induction at 1 µM with A549 cells is more than 1.5. Moreover, the negative logarithm of the IC50 (pIC50) on human 15-PGDH is not below 7.00.

On to `O=C(c1cnn2c(-c3cc(-c4cncc(F)c4)nc(N4CCOC4=O)c3)cccc12)N1CCCCC1` [Example 370, 3-(5'-fluoro-4-(3-(piperidine-1-carbonyl)pyrazolo[1,5-a]pyridin-7-yl)-[2,3'-bipyridin]-6-yl)oxazolidin-2-one], for which, in the assay on A549 cells, the fold induction at 1 µM was more than 1.5. Besides, the pIC50 against human 15-PGDH is not below 7.00.

Consider `CN(C)CC(=O)Nc1cncc(-c2cccc3c(C(=O)N4CCCCC4)cnn23)c1` [Example 196, 2-(dimethylamino)-N-(5-(3-(piperidine-1-carbonyl)pyrazolo[1,5-a]pyridin-7-yl)pyridin-3-yl)acetamide], for which the fold induction at 1 µM in the assay with A549 cells is more than 1.5. For the same compound, the pIC50 against human 15-PGDH is not below 7.00.

For `O=C(c1cnn2c(-c3cnc(-c4nnc(C(F)(F)F)o4)c(F)c3)cccc12)N1CCCCC1` [Example 394, [7-[5-fluoro-6-[5-(trifluoromethyl)-1,3,4-oxadiazol-2-yl]-3-pyridyl]pyrazolo[1,5-a]pyridin-3-yl]-(1-piperidyl)methanone], in the assay on A549 cells, the fold induction at 1 µM is more than 1.5. In addition, the pIC50 against human 15-PGDH was not below 7.00.

For `Nc1cnn(-c2cc(-c3cccc4c(C(=O)N5CCCCC5)cnn34)cc(Br)n2)c1` [Example 356, (7-(2-(4-amino-1H-pyrazol-1-yl)-6-bromopyridin-4-yl)pyrazolo|[1,5-a]pyridin-3-yl)(piperidin-1-yl)methanone], in the assay on A549 cells, the fold induction at 1 µM is more than 1.5. At human 15-PGDH, this compound showed a pIC50 not below 7.00.

As for `O=C(c1ncc(-c2cccc3c(C(=O)N4CCCCC4)cnn23)cc1F)N1CCOCC1` [Example 249, [7-[5-fluoro-6-(morpholine-4-carbonyl)-3-pyridyl]pyrazolo[1,5-a]pyridin-3-yl]-(1-piperidyl)methanone], in the assay on A549 cells, the fold induction at 1 µM is less than 1.5. This compound also gave a pIC50 against human 15-PGDH not below 7.00.

With `O=C(NCC1CC1)c1ccc(-c2cccc3c(C(=O)N4CCCCC4)cnn23)cc1` [Example 64, N-(cyclopropylmethyl)-4-(3-(piperidine-1-carbonyl)pyrazolo[1,5-a]pyridin-7-yl)benzamide], the fold induction at 1 µM in the assay with A549 cells is more than 1.5. This compound also had a pIC50 against human 15-PGDH not below 7.00.

`CC(C)(C)OC(=O)N1CC=C(c2cccc3c(C(=O)N4CCCCC4)cnn23)CC1` [Example 120, tert-butyl 4-(3-(piperidine-1-carbonyl)pyrazolo[1,5-a]pyridin-7-yl)-3,6-dihydropyridine-1(2H)-carboxylate]: the fold induction at 1 µM with A549 cells was more than 1.5. For the same compound, the pIC50 on human 15-PGDH was not below 7.00.

With `O=C(c1ncc(-c2cccc3c(C(=O)N4CCCCC4)cnn23)cc1Cl)N1CCC1` [Example 286, [7-[6-(azetidine-1-carbonyl)-5-chloro-3-pyridyl]pyrazolo[1,5-a]pyridin-3-yl]-(1-piperidyl)methanone], the fold induction at 1 µM with A549 cells is more than 1.5. For the same compound, the negative-log IC50 (pIC50) against human 15-PGDH was not below 7.00.

On to `O=C(c1cnn2c(Nc3ccc[nH]c3=O)cccc12)N1CCCCC1` [Example 147, 3-((3-(piperidine-1-carbonyl)pyrazolo[1,5-a]pyridin-7-yl)amino)pyridin-2(1H)-one], for which the fold induction at 1 µM in the assay on A549 cells is more than 1.5. This compound had a pIC50 on human 15-PGDH not below 7.00.

Regarding `O=C(c1ccc(-c2cccc3c(C(=O)N4CCCCC4)cnn23)cc1)N1CCNCC1` [Example 66, piperazin-1-yl(4-(3-(piperidine-1-carbonyl)pyrazolo[1,5-a]pyridin-7-yl)phenyl)methanone], the fold induction at 1 µM in the assay with A549 cells was more than 1.5. This compound gave a negative-log IC50 (pIC50) against human 15-PGDH not below 7.00.

As for `O=C(c1cnn2c(-c3ccc(-c4ncon4)cc3)cccc12)N1CCCCC1` [Example 352, [7-[4-(1,2,4-oxadiazol-3-yl)phenyl]pyrazolo[1,5-a]pyridin-3-yl]-(1-piperidyl)methanone], in the assay with A549 cells, the fold induction at 1 µM is more than 1.5. In addition, on human 15-PGDH, the pIC50 is not below 7.00.

For the compound `O=C(c1cncc(-c2cccc3c(C(=O)N4CCCCC4)cnn23)c1)N1CCC2(CC1)COC2` [Example 226, 2-oxa-7-azaspiro[3.5]nonan-7-yl-[5-[3-(piperidine-1-carbonyl)pyrazolo[1,5-a]pyridin-7-yl]-3-pyridyl]methanone], in the assay with A549 cells, the fold induction at 1 µM is more than 1.5. This compound also had a pIC50 against human 15-PGDH not below 7.00.

`COCCC(=O)Nc1cccc(-c2cccc3c(C(=O)N4CCCCC4)cnn23)c1` [Example 91, 3-methoxy-N-(3-(3-(piperidine-1-carbonyl)pyrazolo[1,5-a]pyridin-7-yl)phenyl)propanamide]: the fold induction at 1 µM in the assay with A549 cells was more than 1.5. This compound showed a pIC50 on human 15-PGDH not below 7.00.

As for `O=C1NCc2ccc(-c3cccc4c(C(=O)N5CCCC(F)C5)cnn34)cc21` (stereo not drawn) [Example 378, 6-(3-(3-fluoropiperidine-1-carbonyl)pyrazolo[1,5-a]pyridin-7-yl)isoindolin-1-one], in the assay on A549 cells, the fold induction at 1 µM was more than 1.5. For the same compound, the pIC50 against human 15-PGDH is not below 7.00.

For the compound `O=C(c1cccc(-c2cccc3c(C(=O)N4CCCCC4)cnn23)c1)N1CCC1` [Example 29, azetidin-1-yl(3-(3-(piperidine-1-carbonyl)pyrazolo[1,5-a]pyridin-7-yl)phenyl)methanone], the fold induction at 1 µM in the assay on A549 cells is more than 1.5. In addition, the pIC50 at human 15-PGDH was not below 7.00.

With `O=C(c1cnn2c(-c3cc(-c4ncon4)cc([N+](=O)[O-])c3)cccc12)N1CCCCC1` [Example 342, (7-(3-nitro-5-(1,2,4-oxadiazol-3-yl)phenyl)pyrazolo[1,5-a]pyridin-3-yl)(piperidin-1-yl)methanone], the fold induction at 1 µM with A549 cells is more than 1.5. The compound also gave a pIC50 against human 15-PGDH not below 7.00.

For `CN1CCN(C(=O)c2ccc(-c3cccc4c(C(=O)N5CCCCC5)cnn34)cn2)CC1` [Example 83, (4-methylpiperazin-1-yl)(5-(3-(piperidine-1-carbonyl)pyrazolo[1,5-a]pyridin-7-yl)pyridin-2-yl)methanone], in the assay on A549 cells, the fold induction at 1 µM was more than 1.5. This compound also showed a pIC50 at human 15-PGDH not below 7.00.

For `Cn1nccc1-c1cc(-c2cccc3c(C(=O)N4CCCCC4)cnn23)cc(N2CC(O)C2)n1` [Example 357, (7-(2-(3-hydroxyazetidin-1-yl)-6-(1-methyl-1H-pyrazol-5-yl)pyridin-4-yl)pyrazolo[1,5-a]pyridin-3-yl)(piperidin-1-yl)methanone], in the assay on A549 cells, the fold induction at 1 µM is more than 1.5. On human 15-PGDH, this compound showed a negative-log IC50 (pIC50) not below 7.00.

For the compound `O=C(c1cnn2c(-c3ccc(N4CCCCC4)nc3)cccc12)N1CCCCC1` [Example 110, piperidin-1-yl(7-(6-(piperidin-1-yl)pyridin-3-yl)pyrazolo[1,5-a]pyridin-3-yl)methanone], in the assay on A549 cells, the fold induction at 1 µM is less than 1.5. The same compound had a negative logarithm of the IC50 (pIC50) on human 15-PGDH not below 7.00.

For `CN1CCC(NC(=O)c2ccc(-c3cccc4c(C(=O)N5CCCCC5)cnn34)cn2)CC1` [Example 81, N-(1-methylpiperidin-4-yl)-5-(3-(piperidine-1-carbonyl)pyrazolo [1,5-a]pyridin-7-yl)picolinamide], the fold induction at 1 µM in the assay on A549 cells was more than 1.5. The compound further had a pIC50 against human 15-PGDH not below 7.00.

As to `O=C(Cc1cncc(F)c1)Nc1ccc(-c2cccc3c(C(=O)N4CCCCC4)cnn23)cn1` [Example 409, 2-(5-fluoropyridin-3-yl)-N-(5-(3-(piperidine-1-carbonyl)pyrazolo[1,5-a]pyridin-7-yl)pyridin-2-yl)acetamide], in the assay with A549 cells, the fold induction at 1 µM is more than 1.5. For the same compound, the pIC50 against human 15-PGDH was not below 7.00.

Consider `O=C(O)c1ncc(-c2cccc3c(C(=O)N4CCCCC4)cnn23)cc1F` [Example 243, 3-fluoro-5-[3-(piperidine-1-carbonyl)pyrazolo[1,5-a]pyridin-7-yl]pyridine-2-carboxylic acid], for which the fold induction at 1 µM with A549 cells is more than 1.5. Besides, on human 15-PGDH, the pIC50 is not below 7.00.

The values are drawn from EP4653437A2 (Innovo Therapeutics Inc., priority 2023, dated 2024).
